Measured values published in paper PMC12498190, “A Photocaged N‐Phosphonopiperidinone as a Selective Photo‐Cleavable DPP8/9 Inhibitor” (Chembiochem, 2025).

Legend:
HEK293 cells = test: Cell viability assay (MTT); format: cell-based, human; conditions: low micromolar range, 24 h
Description: (§1) Figure 2 Competitive ABPP with photo‐cleavable inhibitor 5 in HEK293 cells. A) Schematic overview of a competitive ABPP experiment. A proteome is pre‐incubated with a competitor, followed by a labeling reaction with an activity‐based probe (ABP). In the case of a photocaged inhibitor, the active compound can be released via irradiation. Target proteins of the competitor cannot be bound by the ABP, resulting in an absence of the respective protein band in‐gel analysis. Created in BioRender. Najdzion, M. (2025) https://BioRender.com/84zn8cb B) Gel‐based competitive ABPP experiment in HEK293 cell lysates with the broadband serine hydrolase ABP ≡FP or the DPP8/9‐directed ABP 2 and the photocaged inhibitor 5, at the indicated concentrations, after or without prior irradiation with green light for 5 min. The corresponding pre‐incubation time for 5 was 30 min. C) Corresponding in situ competitive ABPP experiment in HEK293 cell culture, again with 10 µM 2 for 1 h. Labeling was competed by pre‐incubation with 20 µM 5 for 1 h, followed by an activation of the photocaged inhibitor by irradiation for 5 min with a green LED lamp, if applicable. D) Green light treatment has no cytotoxic effect. HEK293 cells were irradiated with a green LED lamp in the presence of 0.5% DMSO for 5 min (‘light’), and cell viability was measured after 24 h. […] Data was normalized to the non‐irradiated control (‘dark’). E) Green light treatment leads to the release of the active DPP8/9 inhibitor. HEK293 cells were incubated with compound 1 or 5 for 24 h. For both compounds, cell viability was measured under ‘dark’ (not irradiated) and ‘light’ (irradiated for 5 min with a green LED lamp after the addition of the inhibitor) conditions. […] Data was normalized to the non‐irradiated DMSO control.
(§2) In order to validate target engagement in living cells and potential cytotoxic effects of green light treatment, we determined cell viability of HEK293 cells after 24 h inhibitor treatment with 5 with or without 5 min green light irradiation, as the application of DPP8/9 inhibitors at high concentrations and thus elimination of any residual DPP8/9 activity results in cytotoxicity.^[ [38], [39] ^– [40] ^] As a control, effects of green light treatment on cell viability were examined in the absence of any inhibitor after 24 h, again with or without 5 min irradiation (Figure 2D). […] Of note, no additional effect of the photocage on cell viability was observed. In summary, our cell viability studies confirm target engagement in live cells exclusively after photorelease, thereby again confirming the suitability of the photocaged DPP8/9 inhibitor 5 as a cell biological tool compound.
(§3) To investigate the cytotoxicity of compounds, 2 × 10^4 HEK293 cells were cultured in DMEM (+/+) on 96‐well flat‐bottom cell culture plates (Sarstedt, Germany) as described above. After 24 h, cells were treated with indicated concentrations of compounds (final DMSO concentration: 0.5%) and, if applicable, irradiated with a green LED lamp (λ = 520−530 nm; Eurolite, Germany) for 5 min. Control cells were treated with DMSO. Cell viability was measured 24 h after compound treatment. To this end, 25 µL Thiazolyl Blue Tetrazolium Bromide (MTT) solution (5 mg mL^−1 MTT (Sigma Aldrich, USA) in PBS (Gibco, USA)) was added to each well directly into the medium. After 3 h of incubation at 37 °C, the medium was removed and formazan crystals were dissolved by adding 150 µL DMSO (1 h, 37 °C, gentle shaking), followed by an absorbance measurement at 570 and 630 nm as a reference using a Tecan Spark 10 M multimode microplate reader (Tecan Group Ltd., Switzerland). Each experiment was performed with five replicates. Relative cell viability was expressed as a percentage relative to the DMSO‐treated control cells.

[1] = Cell viability assay (MTT); format: cell-based, human; conditions: human, HEK293 cells, regardless of irradiation, read-out: Remaining viability
Description: as §1, §2, §3

[2] = format: physicochemical; conditions: longer irradiation times, green LED 520-530 nm, up to 5 min
Description: With 5 in our hands, we then started our probe characterization by determining the velocity of the photorelease reaction, i.e., the light‐triggered cleavage of the photocage, thereby delivering again the “active” inhibitor 1. To this end, a 50 µM solution of 5 in 10% acetonitrile in MS‐grade water was irradiated with a green LED lamp (λ = 520‐530 nm, 30 W) for the indicated time periods, and the release of the active inhibitor 1 was quantified via liquid chromatography‐mass spectrometry (LC–MS) analysis (Figure 1A). […] After 3 min, cleavage was quantitative (>99%). Importantly, the only products observed were the desired ‘free’ inhibitor 1 and the cleaved photogroup, indicating a clean activation to 1.
Figure 1 DPP inhibition by photo‐cleavable inhibitors. A) LC‐MS analysis of the photocleavage reaction of 5 after irradiation with green light. 50 µM of compound 5 was irradiated with a green LED lamp (λ = 520‐530 nm, 30 W) for up to 5 min, and the resulting reaction mixture was analyzed via LC‐MS. […] B) Resulting quantification of the photolysis of 5 based on peak areas depicted in A) (n = 3 technical replicates). […] Enzyme activity was determined by measuring the release of AMC from the substrate GP‐AMC. […]
Compound 5 was dissolved in DMSO. In order to quantify the effect of irradiation time on photocleavage of the BODIPY moiety, 50 µL aliquots of a 50 µM solution of 5 in 10% acetonitrile (ACN; VWR Chemicals, USA) in MS‐grade water (VWR Chemicals, USA) were irradiated for 0–5 min with a green LED lamp (λ = 520–530 nm, 30 W; Eurolite, Germany) at room temperature (RT) and gentle shaking (final DMSO concentration: 0.5%).
Quantification of inhibitor release was then determined via LC‐MS on an LTQ XL linear ion trap mass spectrometer (ITMS; Thermo Fisher Scientific, USA) coupled to a DIONEX UltiMate 3000 system (Thermo Fisher Scientific, USA), operated using Xcalibur software 4.4.16.14. […] Quantification was done using Freestyle v1.6. based on the UV spectra (λ = 254 nm) using the Avalon peak detection algorithm. […]

DPP9 = DPP9 (Homo sapiens, UniProt Q86TI2); test: In vitro gel-based competitive ABPP in HEK293 cell lysates, 100 kDa band; design: endogenous in cells; host or cells: HEK293 (Cytion, Germany, 300192); conditions: HEK293 lysate; 10 µM probe, 1 h; ca. 100 kDa (DPP9) and 70 kDa (PREP); regardless of irradiation
Description: Therefore, HEK293 cell lysates were pre‐incubated with 10 µM 5 or DMSO vehicle control for 30 min, followed by a labeling reaction with 2 µM of the serine hydrolase‐specific ABP fluorophosphonate‐alkyne (≡FP) or 10 µM 2 (Figure 2B). […] Of note, this band has been previously assigned as DPP9 (DPP8 would migrate in the same range, but is only expressed at low levels in the used cell line and therefore cannot be visualized by this approach).^[ [36] ^, [37] ^] […] Again, this labeling was observed regardless of prior irradiation. Subsequently, the competitive labeling experiment was conducted by pre‐incubation with compound 5, with or without subsequent irradiation.
as §1
For in vitro ABPP, cell lysates were generated from HEK293 cells grown on a 10 cm tissue dish. […] The cell lysates were cleared via centrifugation (30 min, 20,817 × g, 4 °C), and protein concentration was determined with a modified Bradford assay using Roti‐Nanoquant (Carl Roth, Germany). […]

Chain of DPP9 (Q86TI2 whole entry): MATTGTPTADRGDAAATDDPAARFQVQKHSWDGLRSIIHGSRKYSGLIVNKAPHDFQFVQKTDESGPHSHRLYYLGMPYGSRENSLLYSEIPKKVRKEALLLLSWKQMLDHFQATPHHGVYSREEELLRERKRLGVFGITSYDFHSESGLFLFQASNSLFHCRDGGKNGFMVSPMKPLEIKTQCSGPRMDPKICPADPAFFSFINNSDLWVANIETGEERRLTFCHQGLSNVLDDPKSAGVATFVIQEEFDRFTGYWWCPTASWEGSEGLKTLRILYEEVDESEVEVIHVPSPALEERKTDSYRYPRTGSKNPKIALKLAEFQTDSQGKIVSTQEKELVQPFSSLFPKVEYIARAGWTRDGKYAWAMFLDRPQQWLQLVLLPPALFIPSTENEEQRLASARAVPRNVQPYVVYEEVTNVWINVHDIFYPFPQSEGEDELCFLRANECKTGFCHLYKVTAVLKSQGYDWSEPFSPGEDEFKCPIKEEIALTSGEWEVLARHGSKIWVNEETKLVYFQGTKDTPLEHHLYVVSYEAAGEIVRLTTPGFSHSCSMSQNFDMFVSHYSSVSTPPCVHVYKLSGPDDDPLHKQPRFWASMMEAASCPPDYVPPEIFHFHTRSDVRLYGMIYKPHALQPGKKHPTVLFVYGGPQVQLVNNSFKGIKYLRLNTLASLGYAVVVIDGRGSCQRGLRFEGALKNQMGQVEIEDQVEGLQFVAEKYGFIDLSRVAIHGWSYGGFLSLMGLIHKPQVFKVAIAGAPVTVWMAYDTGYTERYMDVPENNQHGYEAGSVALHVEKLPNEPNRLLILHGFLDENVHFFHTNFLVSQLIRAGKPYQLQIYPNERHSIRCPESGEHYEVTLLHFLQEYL

Compound	Effect on cell viability (in words) (HEK293 cells)	viability at 24 h, 25 µM ([1]; 25 µM)	viability at 24 h, 50 µM ([1]; 50 µM)	Photostability under photorelease conditions (in words) [2]	Bands labeled by the probe in ABPP (in words) (DPP9)
CCCCCc1ccc(SCCP(=O)(OCC)N2CCC[C@H](N)C2=O)cc1 (some centres unmarked) [Compound 1]	did not significantly affect cell viability	~65%	~15%	did not lead to further side products	–
C#CCCCP(=O)(OCC)N1CCC[C@H](N)C1=O (some centres unmarked) [Compound 2]	–	–	–	–	two bands
